Measured values as given in paper PMC4775997, “Imidazopyridazine Inhibitors of Plasmodium falciparum Calcium-Dependent Protein Kinase 1 Also Target Cyclic GMP-Dependent Protein Kinase and Heat Shock Protein 90 To Kill the Parasite at Different Stages of Intracellular Development” (Antimicrobial Agents and Chemotherapy, 2016).
Like-named read-outs stand apart in the source and are kept apart here.

How the values were obtained:
PfHSP90 = PfHSP90 (Plasmodium falciparum, UniProt Q8IC05); assay: Tryptophan fluorescence binding, full-length PfHSP90; conditions: tryptophan fluorescence 346 nm; [SE] of triplicate measurements; read-out: Kd, full-length PfHSP90
Procedure: (§1) The PCR product was cloned into pRSET-A (Life Technologies) between the BamHI and XhoI sites. Positive clones were confirmed by restriction digestion and sequencing. The clone was transformed into Escherichia coli Rosetta(pLysS) cells, and protein was expressed by induction with 0.1 mM isopropyl β-D-1-thiogalactopyranoside (IPTG) at 37°C for 2 h. PfHSP90 proteins were purified using Ni-nitrilotriacetic acid (NTA) affinity chromatography (Qiagen) as described in the manufacturer's protocol.
Tryptophan fluorescence analysis was performed using a PerkinElmer LS55 luminescence spectrometer. […] The binding buffer used for the reaction contained 50 mM Tris-HCl, pH 7.4, and 1 mM EDTA. Samples were excited at 280 nm, and tryptophan fluorescence measurements were carried out by scanning the emission spectrum in the wavelength range 300 to 400 nm. A maximum wavelength (λmax) of 346 nm was selected for all the calculations. The slit widths of excitation and emission were set at 2.5 and 5 nm, respectively. The difference in fluorescence intensity between protein alone and protein with various concentrations of 17-AAG or compound D was calculated and plotted against the different concentrations of the respective ligand used. The resultant hyperbolic curve was analyzed with GraphPad Prism software, using nonlinear regression analysis with single-site-specific binding as described previously ([32]).

PfHSP90-NTD = PfHSP90-NTD (Plasmodium falciparum, UniProt Q8IC05); assay: Tryptophan fluorescence binding, PfHSP90 N-terminal domain; conditions: tryptophan fluorescence 346 nm; [SE] of triplicate measurements; read-out: Kd, PfHSP90-NTD
Description: PfCDPK1 and PfCDPK1 T145G proteins were produced using methods described elsewhere ([23]). The PfHSP90 N-terminal domain (NTD) comprises the first 223 amino acids of PfHSP90. This region was amplified from the full-length PfHSP90-pRSET-A construct ([32]) using the following primers: primer 7, […]; primer 8, […].
as §1, with “PfHSP90 proteins were purified using Ni-nitrilotriacetic acid (NTA) affinity chromatography (Qiagen) as described in the manufacturer's protocol.” left out
Tryptophan fluorescence analysis was performed using a PerkinElmer LS55 luminescence spectrometer. […] Samples were excited at 280 nm, and tryptophan fluorescence measurements were carried out by scanning the emission spectrum in the wavelength range 300 to 400 nm. […] The difference in fluorescence intensity between protein alone and protein with various concentrations of 17-AAG or compound D was calculated and plotted against the different concentrations of the respective ligand used. The resultant hyperbolic curve was analyzed with GraphPad Prism software, using nonlinear regression analysis with single-site-specific binding as described previously ([32]).

3D7 PKG T618Q = assay: microbe, parasite or virus in culture; type: cell-based, Plasmodium falciparum; conditions: for EC50: read-out: Parasite inhibition EC50, 3D7 PKG T618Q; for Ratio 3D7 PKG T618Q/3D7: Table S2
P. falciparum 3D7 [1] = assay: SYBR green I growth assay, wild-type parasites; type: cell-based, Plasmodium falciparum; conditions: for EC5048/EC5096 ratio: Table 1
PfPKG = target: T1, PfPKG (Plasmodium falciparum, UniProt Q8I719); assay: Microfluidic fluorescent shift assay of cGMP-dependent protein kinase activity; type: biochemical
T1 construct: plasmids (pTrcHisC) encoding full-length PfPKG and PfPKG T618Q with N-terminal His tags; His tag (N); made in house; host or cells: E. coli Rosetta2(DE3)

CDPK1 = CDPK1 (Plasmodium falciparum, UniProt P62344); assay: biochemical; type: biochemical; conditions: Table 2; read-out: Enzyme inhibition IC50, CDPK1
P. falciparum 3D7 [2] = assay: Microscopic examination of Giemsa-stained smears (stage of action); conditions: for Stage of action (before or after DNA synthesis): Table S1, ring-stage parasites, 10x EC50 for 48 h; for Stage of action: ring stage parasites treated with 10 times the 96-h EC50 for 48 h
PfPKG T618Q = target: T2, PfPKG T618Q (Plasmodium falciparum, UniProt Q8I719, T618Q); assay: biochemical; type: biochemical
T2 construct: plasmids (pTrcHisC) encoding full-length PfPKG and PfPKG T618Q with N-terminal His tags; His tag (N); made in house; host or cells: E. coli Rosetta2(DE3)

[3] = Table 2, SYBR green I, 96 h, single experiment, or mean (SD) of duplicate assays
[4] = SYBR green I, 48 h incubation, mean of three independent experiments (SD), read-out: EC50 after treatment for 48 h
[5] = SYBR green I, 96 h incubation, mean of three independent experiments (SD), read-out: EC50 after treatment for 96 h
[6] = Table 2, SYBR green I, 96 h, single experiment, or mean (SD) of duplicate assays, read-out: Parasite inhibition EC50, 3D7
[7] = Table S1, single experiment with duplicate samples, or mean of triplicate experiments (SD), read-out: EC50 48 hours
[8] = read-out: Enzyme inhibition IC50, PKG
[9] = Table 2, ATP at Km 90 μM, read-out: Enzyme inhibition IC50, PKG T618Q

T2 sequence (Q8I719 whole entry T618Q): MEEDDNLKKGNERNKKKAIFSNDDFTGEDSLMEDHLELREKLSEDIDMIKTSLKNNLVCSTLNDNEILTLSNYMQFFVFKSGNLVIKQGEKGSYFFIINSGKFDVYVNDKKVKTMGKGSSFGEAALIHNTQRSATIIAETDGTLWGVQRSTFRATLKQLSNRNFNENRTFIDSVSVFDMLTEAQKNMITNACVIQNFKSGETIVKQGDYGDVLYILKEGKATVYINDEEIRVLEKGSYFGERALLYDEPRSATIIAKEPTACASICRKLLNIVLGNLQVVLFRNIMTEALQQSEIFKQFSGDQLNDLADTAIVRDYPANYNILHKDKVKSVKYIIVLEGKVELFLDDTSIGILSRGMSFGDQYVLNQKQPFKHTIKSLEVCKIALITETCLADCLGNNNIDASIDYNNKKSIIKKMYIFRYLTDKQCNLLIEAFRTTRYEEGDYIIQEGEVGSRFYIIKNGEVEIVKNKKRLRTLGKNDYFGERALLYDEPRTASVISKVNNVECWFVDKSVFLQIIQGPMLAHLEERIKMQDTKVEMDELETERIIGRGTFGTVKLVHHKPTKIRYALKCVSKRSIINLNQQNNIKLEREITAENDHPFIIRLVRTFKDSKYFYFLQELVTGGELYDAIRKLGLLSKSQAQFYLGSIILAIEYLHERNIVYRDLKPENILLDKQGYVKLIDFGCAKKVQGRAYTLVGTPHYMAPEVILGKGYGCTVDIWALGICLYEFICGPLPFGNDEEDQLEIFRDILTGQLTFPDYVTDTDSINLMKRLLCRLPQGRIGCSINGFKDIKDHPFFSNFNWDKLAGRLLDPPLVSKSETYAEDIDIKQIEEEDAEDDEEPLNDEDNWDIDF
Chain of CDPK1 (P62344 whole entry): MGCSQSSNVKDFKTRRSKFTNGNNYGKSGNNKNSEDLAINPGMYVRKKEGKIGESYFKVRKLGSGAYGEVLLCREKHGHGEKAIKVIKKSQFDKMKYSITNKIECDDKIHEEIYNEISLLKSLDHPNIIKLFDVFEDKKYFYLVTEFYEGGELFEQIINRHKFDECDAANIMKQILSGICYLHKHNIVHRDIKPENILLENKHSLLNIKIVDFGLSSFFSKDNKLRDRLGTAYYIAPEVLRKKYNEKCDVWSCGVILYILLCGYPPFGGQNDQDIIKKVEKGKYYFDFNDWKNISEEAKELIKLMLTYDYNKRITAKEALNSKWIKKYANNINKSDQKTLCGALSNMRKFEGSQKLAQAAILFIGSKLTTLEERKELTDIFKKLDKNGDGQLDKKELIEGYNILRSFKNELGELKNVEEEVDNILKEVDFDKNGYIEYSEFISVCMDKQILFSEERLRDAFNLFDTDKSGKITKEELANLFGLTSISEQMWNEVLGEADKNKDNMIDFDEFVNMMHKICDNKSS
Chain of PfHSP90-NTD (Q8IC05 entry or part of it): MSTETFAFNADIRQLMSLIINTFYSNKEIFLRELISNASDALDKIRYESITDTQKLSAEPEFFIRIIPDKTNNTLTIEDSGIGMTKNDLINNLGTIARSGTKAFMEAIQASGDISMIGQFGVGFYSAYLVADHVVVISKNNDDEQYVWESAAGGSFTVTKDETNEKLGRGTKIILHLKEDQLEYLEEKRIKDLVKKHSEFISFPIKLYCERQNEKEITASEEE
Chain of PfHSP90 (Q8IC05 entry or part of it): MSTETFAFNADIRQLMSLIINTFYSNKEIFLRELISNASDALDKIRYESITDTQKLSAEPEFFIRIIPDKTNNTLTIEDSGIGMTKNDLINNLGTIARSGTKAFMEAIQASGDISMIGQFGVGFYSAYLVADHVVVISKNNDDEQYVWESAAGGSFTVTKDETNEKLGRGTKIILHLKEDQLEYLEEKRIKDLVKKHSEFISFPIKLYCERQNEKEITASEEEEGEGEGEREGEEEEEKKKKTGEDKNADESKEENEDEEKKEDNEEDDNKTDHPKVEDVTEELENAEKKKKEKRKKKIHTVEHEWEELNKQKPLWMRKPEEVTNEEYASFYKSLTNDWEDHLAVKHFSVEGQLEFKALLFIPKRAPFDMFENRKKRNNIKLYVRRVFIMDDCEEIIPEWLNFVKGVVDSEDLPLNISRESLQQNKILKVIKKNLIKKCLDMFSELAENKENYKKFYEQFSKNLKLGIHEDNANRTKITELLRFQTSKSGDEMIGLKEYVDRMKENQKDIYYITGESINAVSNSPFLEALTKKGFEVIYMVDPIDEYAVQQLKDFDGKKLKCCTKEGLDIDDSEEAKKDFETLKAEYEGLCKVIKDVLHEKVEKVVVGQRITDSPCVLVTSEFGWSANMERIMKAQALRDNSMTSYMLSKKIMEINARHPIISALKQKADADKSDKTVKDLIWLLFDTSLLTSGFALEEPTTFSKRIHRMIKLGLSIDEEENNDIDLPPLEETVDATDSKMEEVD

Row | Compound | 3D7 PKG T618Q/3D7 EC50 ratio (3D7 PKG T618Q; Table 2) | Ratio 3D7 PKG T618Q/3D7 (3D7 PKG T618Q) | EC5048/EC5096 ratio (P. falciparum 3D7 [1]) | ratio EC5048:EC5096 (P. falciparum 3D7 [1]; Table S1) | IC50 (CDPK1) | Stage of action (before or after DNA synthesis) (P. falciparum 3D7 [2]) | Stage of action (P. falciparum 3D7 [2]) | EC50 (3D7 PKG T618Q; [3]) | EC50 (P. falciparum 3D7 [1]; [4]) | EC50 (P. falciparum 3D7 [1]; [5]) | EC50 (P. falciparum 3D7 [1]; [6]) | EC50 (P. falciparum 3D7 [1]; [7]) | IC50 (PfPKG; [8]) | IC50 (PfPKG T618Q; [9]) | further results
1 | C=CCNC1=C2C[C@@H](C)C[C@H](OC)[C@H](O)[C@@H](C)/C=C(\C)[C@H](OC(N)=O)[C@@H](OC)/C=C\C=C(/C)C(=O)NC(=CC1=O)C2=O [Compound 17-AAG, 17-N-allylamino-17-demethoxygeldanamycin, reference compound] | – | – | – | – | – | – | – | – | – | – | – | – | – | – | Kd (PfHSP90): 8.7 µM; Kd (PfHSP90-NTD): 15.8 µM
2 | NC1CCC(Nc2ccc3ncc(-c4cnc(Nc5ccccn5)c(F)c4)n3n2)CC1 (centres unmarked) [Compound 20] | 1.8 | 2 | 2.1 | 2.1 | 0.008 µM | trophozoite | Trophozoite | – | – | – | – | – | – | – | EC50 (3D7 PKG T618Q; Plasmodium falciparum, 3D7, 96 h): 0.386 µM; EC50 (P. falciparum 3D7 [1]; Plasmodium falciparum, 3D7, 48 h, read-out: EC50 48 hours): 0.3 µM; EC50 (P. falciparum 3D7 [1]; Plasmodium falciparum, 3D7, 48 h, read-out: EC50 after treatment for 48 h): 0.298 µM; EC50 (P. falciparum 3D7 [1]; Plasmodium falciparum, 3D7, 96 h, read-out: EC50 96 hours): 0.14 µM; EC50 (P. falciparum 3D7 [1]; Plasmodium falciparum, 3D7, 96 h, read-out: EC50 after treatment for 96 h): 0.142 µM; EC50 (P. falciparum 3D7 [1]; Plasmodium falciparum, 3D7, 96 h, read-out: Parasite inhibition EC50, 3D7): 0.21 µM; IC50 (PfPKG): 0.012 µM; IC50 (PfPKG T618Q): 15.3 µM
3 | CC(C)CCNc1ccc(-c2cnc3ccc(NC4CCN(C)C4)nn23)cn1 (centres unmarked) [Compound 22] | 1.4 | 1 | 1.8 | 1.8 | 0.074 µM | trophozoite (before) | Trophozoite | 0.303 µM | 0.546 µM | 0.3 µM | 0.215 µM | 0.55 µM | > 1 µM | 37.5 µM | Selectivity (PKG T618Q/PKG IC50 ratio) (PfPKG T618Q; Table 2): <38
4 | Fc1cccnc1Nc1ncc(-c2cnc3ccc(NC4CCC(N5CCNCC5)CC4)nn23)cn1 (centres unmarked) [Compound 28] | 10.8 | 11 | 4.4 | 4.4 | 0.012 µM | late schizont (after) | Late schizont | 0.64 µM | 0.168 µM | 0.038 µM | 0.059 µM | 0.17 µM | 0.003 µM | 31.7 µM | EC5048/EC5096 ratio (P. falciparum 3D7 [1]; listed as Compound 28): less than 5; EC50 (P. falciparum 3D7 [1]; Table S1, single experiment with duplicate samples, or mean of triplicate experiments (SD), read-out: EC50 96 hours): 0.04 µM; Stage of action (P. falciparum 3D7 [2]; listed as Compound 28): arrest parasites in late schizogony; Selectivity PKG T618Q/PKG (PfPKG T618Q; Table S2): 12100
